{"source": "ChEMBL document CHEMBL5465560", "about": "“Selectivity Literature for EUbOPEN Chemogenomic Library” (2024)", "key": {"[1]": {"biological_target": "Serine/threonine-protein kinase 10 (Homo sapiens) (UniProt O94804)", "assay": "Selectivity interaction (Kinase panel (KiNativ target engagement assay in Jurkat cells)) EUB0001635a STK10", "type": "cell-based", "details": "Selectivity number of off-targets 0.0, Selectivity number of targets 233.0, Source Knowledge https://www.sciencedirect.com/science/article/pii/S2451945619300674?via%3Dihub, at 1 µM"}, "[2]": {"system": "Tyrosine-protein kinase ABL1 (Homo sapiens), P00519 [F317I]", "assay": "Selectivity interaction (KinomeScan (DiscoverX)) EUB0000045b ABL1", "details": "at 1 µM"}, "[3]": {"biological_target": "Glycogen synthase kinase-3 alpha (Homo sapiens, UniProt P49840)", "sequence (P49840 2-483 limits assumed)": "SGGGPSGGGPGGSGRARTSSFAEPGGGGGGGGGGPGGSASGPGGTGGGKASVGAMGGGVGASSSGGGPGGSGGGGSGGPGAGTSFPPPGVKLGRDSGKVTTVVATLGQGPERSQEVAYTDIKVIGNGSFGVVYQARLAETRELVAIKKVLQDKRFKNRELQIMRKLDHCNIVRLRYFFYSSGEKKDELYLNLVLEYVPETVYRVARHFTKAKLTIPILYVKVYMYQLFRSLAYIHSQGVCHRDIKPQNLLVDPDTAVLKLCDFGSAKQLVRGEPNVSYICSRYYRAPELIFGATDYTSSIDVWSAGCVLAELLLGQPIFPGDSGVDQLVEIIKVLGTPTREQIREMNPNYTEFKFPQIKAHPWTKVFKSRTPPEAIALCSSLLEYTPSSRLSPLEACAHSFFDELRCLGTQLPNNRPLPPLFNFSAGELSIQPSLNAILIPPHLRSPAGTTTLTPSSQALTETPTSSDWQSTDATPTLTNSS", "assay": "Selectivity interaction (Rxn Biology Kinase assay) EUB0001632a GSK3A", "details": "at 10 µM"}, "[4]": {"biological_target": "Bone morphogenetic protein receptor type-1A (Homo sapiens, UniProt P36894)", "sequence (P36894 whole entry)": "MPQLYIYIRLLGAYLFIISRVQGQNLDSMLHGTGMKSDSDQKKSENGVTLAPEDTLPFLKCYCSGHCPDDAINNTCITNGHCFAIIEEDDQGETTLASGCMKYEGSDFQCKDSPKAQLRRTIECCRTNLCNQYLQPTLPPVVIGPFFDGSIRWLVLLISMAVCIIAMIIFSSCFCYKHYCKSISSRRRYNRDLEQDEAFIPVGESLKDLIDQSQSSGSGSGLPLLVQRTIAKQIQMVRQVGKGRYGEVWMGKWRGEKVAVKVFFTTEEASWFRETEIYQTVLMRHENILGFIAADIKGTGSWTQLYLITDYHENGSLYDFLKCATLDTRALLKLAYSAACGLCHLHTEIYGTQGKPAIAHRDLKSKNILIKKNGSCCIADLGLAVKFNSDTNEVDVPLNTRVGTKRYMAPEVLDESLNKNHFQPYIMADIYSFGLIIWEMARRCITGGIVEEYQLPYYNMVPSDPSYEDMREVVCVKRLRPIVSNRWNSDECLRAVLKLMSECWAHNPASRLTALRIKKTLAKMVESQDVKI", "assay": "Selectivity interaction (KinomeScan (DiscoverX)) EUB0000666a BMPR1A", "details": "at 10 µM"}, "[5]": {"biological_target": "Mitogen-activated protein kinase 14 (Homo sapiens, UniProt Q16539)", "sequence (Q16539 whole entry)": "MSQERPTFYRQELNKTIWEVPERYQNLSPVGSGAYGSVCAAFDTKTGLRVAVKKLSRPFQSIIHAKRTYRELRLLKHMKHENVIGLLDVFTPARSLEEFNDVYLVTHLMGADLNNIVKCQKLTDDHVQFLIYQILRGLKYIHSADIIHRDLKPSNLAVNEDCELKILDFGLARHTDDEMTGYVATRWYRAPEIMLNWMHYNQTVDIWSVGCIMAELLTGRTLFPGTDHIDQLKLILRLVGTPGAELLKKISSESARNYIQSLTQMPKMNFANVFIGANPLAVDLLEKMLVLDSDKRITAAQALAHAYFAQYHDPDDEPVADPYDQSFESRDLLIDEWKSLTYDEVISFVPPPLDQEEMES", "assay": "Selectivity interaction (Enzyme panel (AstraZeneca, AlphaScreen, functional assay)) EUB0000621a MAPK14"}, "[6]": {"biological_target": "T1, Serine/threonine-protein kinase Chk1 (Homo sapiens) (UniProt O14757)", "T1 sequence (whole entry)": "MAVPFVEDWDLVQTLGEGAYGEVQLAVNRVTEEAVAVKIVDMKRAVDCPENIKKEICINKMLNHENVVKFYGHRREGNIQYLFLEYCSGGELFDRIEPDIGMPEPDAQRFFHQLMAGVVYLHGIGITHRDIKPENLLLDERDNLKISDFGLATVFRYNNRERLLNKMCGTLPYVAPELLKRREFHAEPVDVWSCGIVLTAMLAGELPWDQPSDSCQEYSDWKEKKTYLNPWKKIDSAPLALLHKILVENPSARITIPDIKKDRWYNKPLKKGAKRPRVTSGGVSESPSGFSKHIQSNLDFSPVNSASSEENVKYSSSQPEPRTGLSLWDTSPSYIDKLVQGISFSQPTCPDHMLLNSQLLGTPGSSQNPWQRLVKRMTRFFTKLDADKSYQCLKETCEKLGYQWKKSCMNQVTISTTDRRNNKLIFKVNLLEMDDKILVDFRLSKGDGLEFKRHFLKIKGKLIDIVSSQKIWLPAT", "assay": "Selectivity interaction (Kinase screening (Upstate/Millipore)) EUB0000604a CHEK1"}, "[7]": {"biological_target": "1-phosphatidylinositol 3-phosphate 5-kinase (Homo sapiens) (UniProt Q9Y2I7)", "sequence (Q9Y2I7 whole entry)": "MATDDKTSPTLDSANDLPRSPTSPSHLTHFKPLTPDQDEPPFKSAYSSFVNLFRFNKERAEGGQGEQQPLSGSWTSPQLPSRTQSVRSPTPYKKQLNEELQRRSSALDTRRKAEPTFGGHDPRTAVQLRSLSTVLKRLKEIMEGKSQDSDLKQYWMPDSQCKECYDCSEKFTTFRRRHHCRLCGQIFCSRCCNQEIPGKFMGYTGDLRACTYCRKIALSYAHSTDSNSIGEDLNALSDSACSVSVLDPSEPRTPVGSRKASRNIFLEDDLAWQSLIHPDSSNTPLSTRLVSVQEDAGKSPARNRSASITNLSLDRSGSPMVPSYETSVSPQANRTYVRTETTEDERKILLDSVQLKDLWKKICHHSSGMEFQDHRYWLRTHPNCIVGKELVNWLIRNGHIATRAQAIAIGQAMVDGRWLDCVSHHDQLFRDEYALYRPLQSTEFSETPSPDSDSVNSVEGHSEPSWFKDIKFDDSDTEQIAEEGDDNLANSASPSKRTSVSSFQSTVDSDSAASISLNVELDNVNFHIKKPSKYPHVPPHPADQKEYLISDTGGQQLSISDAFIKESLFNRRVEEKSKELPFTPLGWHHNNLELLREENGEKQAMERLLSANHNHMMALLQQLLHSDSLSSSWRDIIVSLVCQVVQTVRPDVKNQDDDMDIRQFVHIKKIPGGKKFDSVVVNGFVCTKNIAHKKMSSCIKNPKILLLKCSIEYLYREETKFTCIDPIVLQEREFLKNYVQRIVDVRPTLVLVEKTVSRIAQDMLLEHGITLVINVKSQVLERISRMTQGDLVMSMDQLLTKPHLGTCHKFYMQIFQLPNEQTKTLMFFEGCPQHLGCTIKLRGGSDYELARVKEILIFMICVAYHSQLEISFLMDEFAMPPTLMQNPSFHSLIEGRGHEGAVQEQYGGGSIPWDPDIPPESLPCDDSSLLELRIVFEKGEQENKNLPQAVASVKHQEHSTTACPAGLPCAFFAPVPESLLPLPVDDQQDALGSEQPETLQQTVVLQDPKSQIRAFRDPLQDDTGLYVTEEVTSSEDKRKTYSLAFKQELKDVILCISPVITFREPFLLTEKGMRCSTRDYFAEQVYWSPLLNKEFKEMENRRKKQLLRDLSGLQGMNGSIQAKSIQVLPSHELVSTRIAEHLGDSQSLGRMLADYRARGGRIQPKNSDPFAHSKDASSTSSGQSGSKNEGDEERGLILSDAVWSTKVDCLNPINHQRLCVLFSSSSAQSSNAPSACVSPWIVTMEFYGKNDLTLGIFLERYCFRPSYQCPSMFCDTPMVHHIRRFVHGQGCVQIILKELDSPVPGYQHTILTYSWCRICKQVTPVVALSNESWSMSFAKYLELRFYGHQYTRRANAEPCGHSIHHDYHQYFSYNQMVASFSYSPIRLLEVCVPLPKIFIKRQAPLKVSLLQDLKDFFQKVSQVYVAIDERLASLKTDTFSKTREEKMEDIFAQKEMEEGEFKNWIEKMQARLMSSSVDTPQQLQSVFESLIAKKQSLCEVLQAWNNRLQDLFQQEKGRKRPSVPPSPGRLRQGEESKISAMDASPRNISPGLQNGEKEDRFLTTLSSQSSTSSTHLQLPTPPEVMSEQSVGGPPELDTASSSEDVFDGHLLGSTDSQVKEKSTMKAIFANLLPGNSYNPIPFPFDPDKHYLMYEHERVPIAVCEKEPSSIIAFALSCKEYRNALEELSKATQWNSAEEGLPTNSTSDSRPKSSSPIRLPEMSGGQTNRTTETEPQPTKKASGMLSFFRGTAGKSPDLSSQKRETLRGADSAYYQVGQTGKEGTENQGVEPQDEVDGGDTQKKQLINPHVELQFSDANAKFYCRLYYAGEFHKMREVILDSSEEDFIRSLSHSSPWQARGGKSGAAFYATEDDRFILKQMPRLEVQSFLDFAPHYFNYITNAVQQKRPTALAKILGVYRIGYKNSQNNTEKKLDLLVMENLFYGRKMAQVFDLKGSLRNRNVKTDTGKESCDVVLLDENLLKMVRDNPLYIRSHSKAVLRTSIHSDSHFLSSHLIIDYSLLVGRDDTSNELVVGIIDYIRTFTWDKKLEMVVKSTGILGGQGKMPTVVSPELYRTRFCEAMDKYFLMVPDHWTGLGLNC", "assay": "Selectivity interaction (KinomeScan (DiscoverX)) EUB0001550a PIKFYVE", "details": "at 1 µM"}, "[8]": {"biological_target": "CDK9/cyclin T1 (Homo sapiens) (UniProt O60563+P50750)", "assay": "Selectivity interaction (Upstate Kinase Profiler service (Millipore)) EUB0000056c CDK9", "type": "protein-complex assay", "details": "at 1 µM"}, "[9]": {"biological_target": "TGF-beta receptor type-2 (Homo sapiens) (UniProt P37173)", "sequence (P37173 whole entry)": "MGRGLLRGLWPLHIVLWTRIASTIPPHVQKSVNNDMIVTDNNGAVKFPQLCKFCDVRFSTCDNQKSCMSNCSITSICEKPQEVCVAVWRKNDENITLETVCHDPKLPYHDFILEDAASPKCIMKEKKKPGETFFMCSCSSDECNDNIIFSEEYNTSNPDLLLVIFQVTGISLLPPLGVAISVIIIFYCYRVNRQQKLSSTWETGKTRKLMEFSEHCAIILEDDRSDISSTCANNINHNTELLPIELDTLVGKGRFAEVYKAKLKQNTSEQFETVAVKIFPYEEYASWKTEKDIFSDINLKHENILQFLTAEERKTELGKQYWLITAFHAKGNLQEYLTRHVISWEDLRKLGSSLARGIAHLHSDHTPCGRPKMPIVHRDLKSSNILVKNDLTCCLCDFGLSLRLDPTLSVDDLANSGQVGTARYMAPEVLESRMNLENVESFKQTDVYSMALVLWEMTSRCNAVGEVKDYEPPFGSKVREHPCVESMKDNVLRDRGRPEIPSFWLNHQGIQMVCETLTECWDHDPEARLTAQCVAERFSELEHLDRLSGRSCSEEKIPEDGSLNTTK", "assay": "Selectivity interaction (ProQinase) EUB0000171b TGFBR2"}, "[10]": {"biological_target": "5-hydroxytryptamine receptor 2A (Homo sapiens, UniProt P28223)", "assay": "Selectivity interaction (Panel of kinases, GPCRs, ion channels and transporters (enzymatic assay)) EUB0000223bCl HTR2A"}, "[11]": {"biological_target": "Tyrosine-protein kinase Fer (Homo sapiens) (UniProt P16591)", "sequence (P16591 whole entry, looked up)": "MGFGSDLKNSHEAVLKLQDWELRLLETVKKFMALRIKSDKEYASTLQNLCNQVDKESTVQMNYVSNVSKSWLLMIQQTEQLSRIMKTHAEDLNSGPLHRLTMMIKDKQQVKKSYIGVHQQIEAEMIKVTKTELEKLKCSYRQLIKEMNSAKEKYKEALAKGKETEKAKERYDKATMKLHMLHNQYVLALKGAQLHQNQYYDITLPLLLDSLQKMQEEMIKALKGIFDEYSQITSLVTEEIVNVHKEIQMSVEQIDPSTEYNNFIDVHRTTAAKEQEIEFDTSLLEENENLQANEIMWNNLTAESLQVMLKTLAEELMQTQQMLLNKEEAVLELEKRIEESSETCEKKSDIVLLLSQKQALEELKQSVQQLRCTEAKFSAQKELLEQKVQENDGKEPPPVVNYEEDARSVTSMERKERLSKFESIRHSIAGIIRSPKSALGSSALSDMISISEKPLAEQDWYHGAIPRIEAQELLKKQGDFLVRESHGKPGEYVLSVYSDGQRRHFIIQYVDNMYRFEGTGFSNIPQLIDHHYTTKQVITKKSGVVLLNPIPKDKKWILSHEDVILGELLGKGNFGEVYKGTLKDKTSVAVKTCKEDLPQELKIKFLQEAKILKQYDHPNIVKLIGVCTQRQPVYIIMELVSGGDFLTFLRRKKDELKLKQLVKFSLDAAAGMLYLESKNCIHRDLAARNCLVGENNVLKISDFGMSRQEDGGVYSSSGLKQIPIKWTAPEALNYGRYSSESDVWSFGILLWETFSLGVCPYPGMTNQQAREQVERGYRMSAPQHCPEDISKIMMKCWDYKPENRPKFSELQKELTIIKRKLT", "assay": "Selectivity interaction (ActivX KiNativ screen (ex vivo kinase selectivity in human PBMCs)) EUB0001619a FER", "type": "cell-based", "details": "PBMC, at 1 µM"}, "[12]": {"biological_target": "T2, Serine/threonine-protein kinase D3 (Homo sapiens) (UniProt O94806)", "T2 sequence (whole entry)": "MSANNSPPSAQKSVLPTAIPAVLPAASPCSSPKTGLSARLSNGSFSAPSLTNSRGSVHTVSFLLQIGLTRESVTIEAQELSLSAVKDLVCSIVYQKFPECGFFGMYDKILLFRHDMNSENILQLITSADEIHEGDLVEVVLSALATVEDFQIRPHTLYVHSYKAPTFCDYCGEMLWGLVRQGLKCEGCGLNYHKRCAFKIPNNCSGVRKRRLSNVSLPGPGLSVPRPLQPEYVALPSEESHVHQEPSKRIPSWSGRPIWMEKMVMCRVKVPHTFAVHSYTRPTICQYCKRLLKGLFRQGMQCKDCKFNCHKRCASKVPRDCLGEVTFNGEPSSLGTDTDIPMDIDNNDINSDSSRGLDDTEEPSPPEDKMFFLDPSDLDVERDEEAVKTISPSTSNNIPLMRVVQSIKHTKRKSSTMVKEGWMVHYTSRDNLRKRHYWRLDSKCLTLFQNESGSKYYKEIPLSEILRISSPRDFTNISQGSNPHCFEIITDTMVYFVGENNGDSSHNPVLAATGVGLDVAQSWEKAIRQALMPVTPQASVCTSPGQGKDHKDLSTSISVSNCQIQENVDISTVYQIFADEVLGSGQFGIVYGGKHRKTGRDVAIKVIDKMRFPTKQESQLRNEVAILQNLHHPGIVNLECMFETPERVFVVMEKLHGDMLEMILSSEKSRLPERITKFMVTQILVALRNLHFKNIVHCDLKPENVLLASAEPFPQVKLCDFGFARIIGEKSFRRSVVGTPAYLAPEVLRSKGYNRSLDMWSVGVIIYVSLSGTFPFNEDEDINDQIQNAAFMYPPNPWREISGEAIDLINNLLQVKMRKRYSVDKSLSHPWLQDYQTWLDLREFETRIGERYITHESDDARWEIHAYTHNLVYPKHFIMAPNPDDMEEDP", "assay": "Selectivity interaction (KinomeScan (DiscoverX)) EUB0000618a PRKD3", "details": "at 10 µM"}, "[13]": {"biological_target": "T3, Serine/threonine-protein kinase ICK (Homo sapiens) (UniProt Q9UPZ9)", "T3 sequence (whole entry)": "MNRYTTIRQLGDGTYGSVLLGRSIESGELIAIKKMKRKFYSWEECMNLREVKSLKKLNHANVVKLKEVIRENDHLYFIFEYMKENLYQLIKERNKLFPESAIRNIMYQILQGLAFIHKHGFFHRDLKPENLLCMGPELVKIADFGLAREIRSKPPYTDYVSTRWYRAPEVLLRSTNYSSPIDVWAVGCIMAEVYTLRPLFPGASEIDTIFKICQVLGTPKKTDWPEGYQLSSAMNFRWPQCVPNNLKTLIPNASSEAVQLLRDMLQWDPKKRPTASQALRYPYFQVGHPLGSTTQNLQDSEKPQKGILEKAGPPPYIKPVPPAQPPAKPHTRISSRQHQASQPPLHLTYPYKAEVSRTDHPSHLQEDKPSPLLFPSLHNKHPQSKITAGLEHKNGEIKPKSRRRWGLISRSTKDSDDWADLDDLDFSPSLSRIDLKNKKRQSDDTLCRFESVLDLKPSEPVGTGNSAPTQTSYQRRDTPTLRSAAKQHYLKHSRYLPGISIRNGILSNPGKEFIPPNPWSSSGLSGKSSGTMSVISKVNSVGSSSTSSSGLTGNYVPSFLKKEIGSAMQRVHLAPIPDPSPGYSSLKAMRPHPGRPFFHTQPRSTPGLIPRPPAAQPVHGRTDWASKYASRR", "assay": "Selectivity interaction (KinomeScan (DiscoverX)) EUB0000092b ICK", "details": "at 10 µM"}}}
{"smiles": "C=CC(=O)Nc1ccc(C(=O)Nc2[nH]nc3c2CN(C(=O)N[C@H](CN(C)C)c2ccccc2)C3(C)C)cc1", "values": [{"measurement": "% of engagement", "setting": "[1]", "value": -1.6, "unit": "%"}]}
{"smiles": "C=CC(=O)Nc1cc(-n2c(=O)ccc3cnc4ccc(-c5ccc(NS(C)(=O)=O)cc5)cc4c32)ccc1C", "values": [{"measurement": "% of control", "setting": "[2]", "value": 81, "unit": "%"}]}
{"smiles": "Cn1cc(-n2cnc3c(NCc4nc5cc(Cl)c(Cl)cc5[nH]4)nc(N4CCOCC4)nc32)cn1", "values": [{"measurement": "% of inhibition", "setting": "[3]", "value": 90.6, "unit": "%"}]}
{"smiles": "O=C(NOC[C@H](O)CO)c1ccc(F)c(F)c1Nc1ccc(I)cc1F", "values": [{"measurement": "% of control", "setting": "[4]", "value": 100, "unit": "%"}]}
{"smiles": "Cc1cc([C@@H](C)Nc2ccccc2C(=O)O)c2nc(N3CCOCC3)cc(=O)n2c1", "note": "[AZD-6482]", "values": [{"measurement": "IC50", "setting": "[5]", "value": "> 671", "unit": "µM"}]}
{"smiles": "Cc1cnc(Nc2ccc(F)cc2Cl)nc1-c1c[nH]c(C(=O)N[C@H](CO)c2cccc(Cl)c2)c1", "values": [{"measurement": "% of inhibition", "setting": "[6]", "value": 40, "unit": "%"}]}
{"smiles": "CN(C)CC#Cc1ccc2[nH]c3c(c2c1)-c1nc(N)ncc1CCC3", "values": [{"measurement": "% of control", "setting": "[7]", "value": 0.1, "unit": "%"}]}
{"smiles": "Cc1ccc(-c2ccc3c(ccc4sc5c(c43)NC[C@@H](C)NC5=O)n2)cn1", "values": [{"measurement": "% of inhibition", "setting": "[8]", "value": 41, "unit": "%"}]}
{"smiles": "C=CC(=O)Nc1cccc(C(=O)Nc2ccc(Nc3cc(-c4[nH]c(SC)nc4C)ccn3)cc2)c1", "values": [{"measurement": "% of control", "setting": "[9]; at 1 µM", "value": 53, "unit": "%"}, {"measurement": "% of control", "setting": "[9]; at 5 µM", "value": 4, "unit": "%"}]}
{"smiles": "COc1cc(C(=O)N2CC[C@@H](O)[C@@H](N)C2)cc2nc(-c3cc4ccccc4n3CC3CC3)n(C)c12", "values": [{"measurement": "pXC50", "setting": "[10]", "value": 4.9, "unit": "M"}]}
{"smiles": "N#Cc1cccc(-c2c[nH]c3ncnc(N4CCOCC4)c23)c1", "values": [{"measurement": "% of inhibition", "setting": "[11]", "value": 12, "unit": "%"}]}
{"smiles": "O[C@H]1CC[C@H](Nc2ncc3nc(Nc4c(F)cc(F)cc4F)n([C@H]4CCOC4)c3n2)CC1", "values": [{"measurement": "% of control", "setting": "[12]", "value": 84, "unit": "%"}]}
{"smiles": "CCC(=O)N1CCN(c2ccc(-n3c(=O)ccc4cnc5ccc(-c6cnc7ccccc7c6)cc5c43)cc2C(F)(F)F)CC1", "values": [{"measurement": "% of control", "setting": "[13]", "value": 100, "unit": "%"}]}
